Reference: ChEMBL document CHEMBL1201862, “PubChem BioAssay data set” (2004)
Activity calls are given as the source filed them.

Key:
[1] = target: Lysine-specific demethylase 4C (Homo sapiens, UniProt Q9H3R0); assay: inhibition of JMJD2C H3K9me3 demethylation – biochemical, DELFIA europium, cherry-picked samples, dose response (AID 488835); format: functional
Vero [2] = assay: cells; format: functional; details: Chlorocebus sabaeus
Vero [3] = assay: cells; format: functional, cell-based; details: Chlorocebus sabaeus
[4] = target: Dual specificity tyrosine-phosphorylation-regulated kinase 1A (Rattus norvegicus, UniProt Q63470); format: biochemical, Homo sapiens
[5] = target: Dual specificity protein kinase CLK1 (Homo sapiens, UniProt P49759); assay: inhibition of human CLK1 activity – biochemical, cherry-picked samples, selectivity assay for Dyrk1A inhibitor project, dose response (AID 588811)
[6] = target: FAD-linked sulfhydryl oxidase ALR (Homo sapiens, UniProt P55789); assay: ALR-catalysed DTT oxidation blockers – biochemical, H2O2 detection, luminescence, cherry-pick, dose response (AID 493248)
[7] = target: 5-hydroxytryptamine receptor 5A (Homo sapiens, UniProt P47898); assay: Counterscreen for agonists of OPRM1-OPRD1 heterodimerization: luminescence-based cell-based high throughput dose response assay to identify agonists of 5-hydroxytryptamine (serotonin) 5A receptor (HTR5A). [Related pubchem assays (depositor defined):AID504326, AID504355, AID504692, AID504904, AID504905]; format: functional
Mu-type opioid receptor = Mu-type opioid receptor (Homo sapiens, UniProt P35372); assay: Counterscreen for agonists of heterodimerization of the mu 1 (OPRM1) and delta 1 (OPRD1) opioid receptors: Luminescence-based cell-based high throughput dose response assay to identify agonists of OPRM1 homodimerization.; format: functional;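 further: U2OS cells expressing OPRM1 and beta-arrestin as split beta-galactosidase partners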
[8] = target: Delta-type opioid receptor (Homo sapiens, UniProt P41143); assay: Counterscreen for agonists of heterodimerization of the mu 1 (OPRM1) and delta 1 (OPRD1) opioid receptors: Luminescence-based cell-based high throughput dose response assay to identify agonists of OPRD1 homodimerization. [Related pubchem assays (depositor defined):AID504326, AID504355, AID504692, AID504904, AID504905]; format: functional
HeLa = assay: ATP-based viability loss in HeLa cells – cell-based, CellTiter-Glo luminescence, cherry-pick samples, cytotoxicity control for MITF activator project, dose response (AID 540259); format: functional; details: Homo sapiens
Protein skinhead-1 = target: T1, Protein skinhead-1 (Caenorhabditis elegans, UniProt P34707); format: functional
T1 sequence (P34707 whole entry): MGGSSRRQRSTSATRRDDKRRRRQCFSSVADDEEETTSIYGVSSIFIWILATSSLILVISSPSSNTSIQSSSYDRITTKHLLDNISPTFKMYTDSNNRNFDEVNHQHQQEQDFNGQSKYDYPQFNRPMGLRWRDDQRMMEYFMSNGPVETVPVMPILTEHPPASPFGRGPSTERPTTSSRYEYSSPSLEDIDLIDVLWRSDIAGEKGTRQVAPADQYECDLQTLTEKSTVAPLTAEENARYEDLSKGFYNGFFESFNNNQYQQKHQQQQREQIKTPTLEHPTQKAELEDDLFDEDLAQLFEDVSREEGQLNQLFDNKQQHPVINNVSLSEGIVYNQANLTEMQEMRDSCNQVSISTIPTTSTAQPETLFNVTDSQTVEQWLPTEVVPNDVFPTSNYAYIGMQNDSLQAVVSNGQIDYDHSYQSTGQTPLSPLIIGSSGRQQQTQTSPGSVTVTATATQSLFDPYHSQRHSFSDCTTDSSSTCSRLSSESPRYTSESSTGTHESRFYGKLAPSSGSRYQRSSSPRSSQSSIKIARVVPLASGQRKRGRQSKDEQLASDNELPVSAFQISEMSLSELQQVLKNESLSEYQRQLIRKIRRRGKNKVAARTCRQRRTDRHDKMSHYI

INS1 = assay: beta-cell survival under cytokine stress – INS-1E, ATP luminescence, dry powder, dose response (AID 488844); format: functional, cell-based; details: Rattus norvegicus
Phospholipase D1 = target: T2, Phospholipase D1 (Homo sapiens, UniProt Q13393); assay: cellular phospholipase D1 inhibition IC50 – cell-based, dose response (AID 602151); format: functional;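 further: cellular PLD1 assay in Calu-1 cells stimulated with PMA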
T2 sequence (Q13393 whole entry): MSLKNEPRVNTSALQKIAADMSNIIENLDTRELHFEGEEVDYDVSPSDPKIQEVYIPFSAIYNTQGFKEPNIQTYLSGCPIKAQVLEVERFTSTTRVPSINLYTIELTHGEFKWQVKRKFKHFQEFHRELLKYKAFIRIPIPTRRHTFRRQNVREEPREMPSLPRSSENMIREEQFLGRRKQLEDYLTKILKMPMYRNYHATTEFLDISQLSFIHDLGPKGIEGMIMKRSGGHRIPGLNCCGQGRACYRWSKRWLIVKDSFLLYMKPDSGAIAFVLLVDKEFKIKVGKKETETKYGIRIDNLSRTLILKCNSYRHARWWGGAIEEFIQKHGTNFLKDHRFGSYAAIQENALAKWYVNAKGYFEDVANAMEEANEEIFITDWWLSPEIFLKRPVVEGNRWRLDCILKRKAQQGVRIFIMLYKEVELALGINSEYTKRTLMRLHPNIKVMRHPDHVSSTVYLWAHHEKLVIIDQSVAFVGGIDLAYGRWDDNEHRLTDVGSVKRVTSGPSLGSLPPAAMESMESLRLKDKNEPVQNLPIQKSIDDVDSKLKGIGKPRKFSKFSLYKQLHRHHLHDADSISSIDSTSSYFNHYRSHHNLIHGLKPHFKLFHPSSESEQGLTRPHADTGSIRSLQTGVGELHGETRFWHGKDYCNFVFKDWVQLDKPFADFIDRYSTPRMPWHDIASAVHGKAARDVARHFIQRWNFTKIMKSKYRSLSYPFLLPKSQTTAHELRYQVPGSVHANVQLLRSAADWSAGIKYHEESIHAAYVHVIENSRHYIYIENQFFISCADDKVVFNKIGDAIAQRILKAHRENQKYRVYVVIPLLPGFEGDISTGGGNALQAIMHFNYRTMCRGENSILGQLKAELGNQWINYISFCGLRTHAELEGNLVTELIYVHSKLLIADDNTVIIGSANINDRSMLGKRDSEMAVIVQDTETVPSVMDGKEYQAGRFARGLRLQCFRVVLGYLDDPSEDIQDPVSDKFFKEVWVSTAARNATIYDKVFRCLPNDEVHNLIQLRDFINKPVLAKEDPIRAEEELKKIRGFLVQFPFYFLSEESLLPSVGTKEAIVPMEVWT

Phospholipase D2 = Phospholipase D2 (Homo sapiens, UniProt O14939); assay: cellular phospholipase D2 inhibition IC50 – cell-based, dose response (AID 602147); format: functional;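 further: cellular assay in HEK293 cells overexpressing GFP-tagged PLD2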
[9] = target: T3, Small ubiquitin-related modifier 1 (Homo sapiens, UniProt P63165); assay: SUMO1 protein-protein binding blockers, potency – biochemical, FRET, dose response (AID 624383); format: functional; details: read-out: IC50_Mean
[10] = target: T4, Alkaline phosphatase, tissue-nonspecific isozyme (Homo sapiens, UniProt P05186); assay: TNAP enzyme inhibition by screening hits, dose response, selectivity assay for mouse IAP inhibitor project, biochemical, human TNAP, uHTS hits (AID 488906); format: functional
T4 sequence (P05186 whole entry): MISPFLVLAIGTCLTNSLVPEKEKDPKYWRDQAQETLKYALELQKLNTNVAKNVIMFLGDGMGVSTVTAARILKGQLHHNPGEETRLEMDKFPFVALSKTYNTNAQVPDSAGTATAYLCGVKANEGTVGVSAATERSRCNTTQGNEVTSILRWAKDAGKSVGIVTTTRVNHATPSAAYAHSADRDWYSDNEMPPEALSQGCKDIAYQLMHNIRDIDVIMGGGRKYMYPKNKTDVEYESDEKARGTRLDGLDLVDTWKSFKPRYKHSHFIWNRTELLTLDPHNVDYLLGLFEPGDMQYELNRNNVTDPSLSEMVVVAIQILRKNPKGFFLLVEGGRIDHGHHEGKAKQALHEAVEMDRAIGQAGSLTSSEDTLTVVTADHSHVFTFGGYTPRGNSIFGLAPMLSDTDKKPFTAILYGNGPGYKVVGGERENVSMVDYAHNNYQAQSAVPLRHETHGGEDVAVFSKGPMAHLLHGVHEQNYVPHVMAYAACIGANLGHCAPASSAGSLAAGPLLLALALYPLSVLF

[11] = target: DNA (cytosine-5)-methyltransferase 1 (Homo sapiens, UniProt P26358); assay: inhibition of DNA methylation by DNMT1 – biochemical, fluorescent molecular beacon, confirmation (AID 602386); format: functional
[12] = target: T5, Small ubiquitin-related modifier 2 (Homo sapiens, UniProt P61956); assay: disruption of SUMO2 interaction with SIM peptide – biochemical, fluorescence polarization, uHTS hits, selectivity assay for SUMO1 interaction inhibitor project, dose response (AID 624385); format: functional; details: read-out: IC50_Mean
[13] = target: T6, Dual specificity protein phosphatase 3 (Homo sapiens, UniProt P51452); assay: VHR1 phosphatase inhibitors, biochemical (AID 1878)
[14] = viability loss in THP-1 monocytes – THP-1 cells, cytotoxicity control for Vif-APOBEC3G degradation inhibitor project, dose response (AID 1117359); format: functional; details: THP-1
[15] = target: T7, Dual specificity protein phosphatase 6 (Rattus norvegicus, UniProt Q64346); assay: inhibition of rat DUSP6 enzyme activity – biochemical, in vitro, primary screen (AID 425)
T7 sequence (Q64346 whole entry): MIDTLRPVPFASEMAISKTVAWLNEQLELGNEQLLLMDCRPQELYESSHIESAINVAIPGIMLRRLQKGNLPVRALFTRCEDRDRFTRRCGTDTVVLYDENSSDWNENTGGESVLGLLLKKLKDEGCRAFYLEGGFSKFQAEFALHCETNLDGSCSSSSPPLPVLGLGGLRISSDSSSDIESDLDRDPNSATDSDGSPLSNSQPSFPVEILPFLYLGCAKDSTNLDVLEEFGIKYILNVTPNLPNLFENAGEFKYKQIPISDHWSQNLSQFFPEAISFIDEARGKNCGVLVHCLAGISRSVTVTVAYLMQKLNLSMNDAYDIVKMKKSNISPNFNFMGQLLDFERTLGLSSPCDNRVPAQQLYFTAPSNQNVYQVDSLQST

[16] = target: T3, Small ubiquitin-related modifier 1; assay: SUMO1 protein interaction blockers, potency – biochemical, fluorescence polarization, uHTS hits, dose response (AID 624382); format: functional; details: read-out: IC50_Mean
Albumin = Albumin (Bos taurus, UniProt P02769); assay: Counterscreen for inhibitors of T-cell receptor (TCR)-CD3 interaction: Fluorescence-based biochemical high throughput dose response assay to identify inhibitors of T-cell receptor (TCR)-CD3 interaction using a TAMRA-labeled BSA probe.; format: functional
[17] = target: T6, Dual specificity protein phosphatase 3; assay: VHR1 phosphatase inhibitors, primary screen, biochemical, absorbance, uHTS (AID 1654)
[18] = target: Intestinal-type alkaline phosphatase (Homo sapiens, UniProt P09923); assay: inhibition of human intestinal alkaline phosphatase – biochemical, dose response (AID 488876); format: functional
[19] = target: T5, Small ubiquitin-related modifier 2; assay: SUMO2 binding disruption by SUMO1 hits – biochemical, FRET, human SUMO2, uHTS hits, selectivity assay for SUMO1 interaction inhibitor project, dose response (AID 624384); format: functional; details: read-out: IC50_Mean
Caspase-6 = target: T8, Caspase-6 (Homo sapiens, UniProt P55212); assay: inhibition of CASP6 peptide cleavage – biochemical, VEID-R110 fluorescence, cherry-pick, dose response (AID 720632)
T8 sequence (P55212 whole entry): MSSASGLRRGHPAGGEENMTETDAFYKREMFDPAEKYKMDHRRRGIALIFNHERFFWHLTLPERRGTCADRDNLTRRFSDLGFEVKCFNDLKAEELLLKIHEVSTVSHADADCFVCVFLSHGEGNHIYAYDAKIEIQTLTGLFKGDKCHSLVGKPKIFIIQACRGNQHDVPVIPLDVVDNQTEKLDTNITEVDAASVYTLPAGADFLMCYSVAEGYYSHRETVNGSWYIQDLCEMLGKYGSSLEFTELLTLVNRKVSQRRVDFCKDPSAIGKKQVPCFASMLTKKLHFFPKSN

[20] = target: Intestinal-type alkaline phosphatase (Mus musculus, UniProt P24822); assay: PubChem AID 488785; format: functional

T6 sequence (P51452 whole entry): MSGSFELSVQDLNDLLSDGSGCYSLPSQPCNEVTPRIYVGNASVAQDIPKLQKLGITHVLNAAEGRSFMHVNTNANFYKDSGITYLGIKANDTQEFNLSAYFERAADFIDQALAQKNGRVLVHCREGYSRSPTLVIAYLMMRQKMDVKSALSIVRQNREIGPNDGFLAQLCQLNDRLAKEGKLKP
Chain of Dual specificity protein kinase CLK1 (P49759 whole entry): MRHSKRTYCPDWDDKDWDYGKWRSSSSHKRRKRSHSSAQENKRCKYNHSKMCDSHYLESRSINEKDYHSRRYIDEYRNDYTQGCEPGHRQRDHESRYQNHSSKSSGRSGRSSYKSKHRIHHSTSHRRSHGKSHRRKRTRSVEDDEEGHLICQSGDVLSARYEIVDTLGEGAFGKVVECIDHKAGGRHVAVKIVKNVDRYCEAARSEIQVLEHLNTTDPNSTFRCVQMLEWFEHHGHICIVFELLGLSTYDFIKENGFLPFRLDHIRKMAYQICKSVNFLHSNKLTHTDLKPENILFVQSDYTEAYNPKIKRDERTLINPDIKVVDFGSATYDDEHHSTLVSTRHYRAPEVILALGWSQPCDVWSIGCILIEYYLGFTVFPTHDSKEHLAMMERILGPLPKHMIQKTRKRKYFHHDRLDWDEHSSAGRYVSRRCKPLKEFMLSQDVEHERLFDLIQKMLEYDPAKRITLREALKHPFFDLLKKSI
T5 sequence (P61956 whole entry): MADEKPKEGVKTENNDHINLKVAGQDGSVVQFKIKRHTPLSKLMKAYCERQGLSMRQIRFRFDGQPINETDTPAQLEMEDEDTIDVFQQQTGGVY
Chain of Mu-type opioid receptor (P35372 whole entry): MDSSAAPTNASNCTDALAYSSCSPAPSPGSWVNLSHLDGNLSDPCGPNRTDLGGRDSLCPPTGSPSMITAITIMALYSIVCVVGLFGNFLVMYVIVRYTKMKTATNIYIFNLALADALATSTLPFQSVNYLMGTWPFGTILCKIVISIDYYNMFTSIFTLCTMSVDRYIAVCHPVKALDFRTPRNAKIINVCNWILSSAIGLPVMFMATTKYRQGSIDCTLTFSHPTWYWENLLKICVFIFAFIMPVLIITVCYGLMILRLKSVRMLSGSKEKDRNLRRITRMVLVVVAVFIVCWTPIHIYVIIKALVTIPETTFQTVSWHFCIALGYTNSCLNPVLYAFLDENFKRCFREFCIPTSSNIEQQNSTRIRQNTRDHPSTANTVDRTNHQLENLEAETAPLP
Chain of Delta-type opioid receptor (P41143 whole entry): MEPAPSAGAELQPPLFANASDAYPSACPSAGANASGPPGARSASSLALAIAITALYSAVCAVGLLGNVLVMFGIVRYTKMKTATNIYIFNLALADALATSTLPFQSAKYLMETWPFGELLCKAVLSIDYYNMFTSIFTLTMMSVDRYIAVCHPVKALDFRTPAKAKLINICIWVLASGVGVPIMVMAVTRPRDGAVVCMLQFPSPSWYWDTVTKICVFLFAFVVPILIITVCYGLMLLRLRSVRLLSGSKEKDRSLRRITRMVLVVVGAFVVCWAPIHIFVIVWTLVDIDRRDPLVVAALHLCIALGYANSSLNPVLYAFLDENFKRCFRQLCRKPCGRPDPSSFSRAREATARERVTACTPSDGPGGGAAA
Chain of 5-hydroxytryptamine receptor 5A (P47898 whole entry): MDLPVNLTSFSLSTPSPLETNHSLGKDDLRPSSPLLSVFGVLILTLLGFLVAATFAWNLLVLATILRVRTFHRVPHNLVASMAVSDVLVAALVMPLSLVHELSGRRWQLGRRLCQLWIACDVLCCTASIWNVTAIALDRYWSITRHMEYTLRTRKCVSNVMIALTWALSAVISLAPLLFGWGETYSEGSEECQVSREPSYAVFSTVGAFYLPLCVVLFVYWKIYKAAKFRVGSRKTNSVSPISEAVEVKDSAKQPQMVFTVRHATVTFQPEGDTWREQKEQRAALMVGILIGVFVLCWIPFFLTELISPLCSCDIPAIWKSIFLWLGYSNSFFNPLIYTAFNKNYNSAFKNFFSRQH
T3 sequence (P63165 whole entry): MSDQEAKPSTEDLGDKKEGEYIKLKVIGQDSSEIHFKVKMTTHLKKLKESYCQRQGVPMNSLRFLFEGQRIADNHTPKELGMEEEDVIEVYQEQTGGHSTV
Chain of Albumin (P02769 whole entry): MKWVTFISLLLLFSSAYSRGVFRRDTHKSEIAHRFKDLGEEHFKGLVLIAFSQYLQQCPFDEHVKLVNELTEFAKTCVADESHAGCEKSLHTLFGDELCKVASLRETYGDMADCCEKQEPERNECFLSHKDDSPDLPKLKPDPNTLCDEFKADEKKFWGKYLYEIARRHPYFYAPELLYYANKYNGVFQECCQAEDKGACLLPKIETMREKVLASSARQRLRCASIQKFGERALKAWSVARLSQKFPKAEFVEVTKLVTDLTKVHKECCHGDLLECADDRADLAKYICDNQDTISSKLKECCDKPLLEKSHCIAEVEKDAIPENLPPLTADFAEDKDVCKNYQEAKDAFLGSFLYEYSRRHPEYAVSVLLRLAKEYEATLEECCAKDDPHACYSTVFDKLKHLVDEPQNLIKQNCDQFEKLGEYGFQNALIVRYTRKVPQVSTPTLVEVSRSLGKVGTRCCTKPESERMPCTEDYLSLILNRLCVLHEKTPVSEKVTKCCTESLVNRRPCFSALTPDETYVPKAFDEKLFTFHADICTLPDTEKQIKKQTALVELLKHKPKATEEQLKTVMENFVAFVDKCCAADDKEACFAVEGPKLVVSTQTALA
Chain of Lysine-specific demethylase 4C (Q9H3R0 whole entry): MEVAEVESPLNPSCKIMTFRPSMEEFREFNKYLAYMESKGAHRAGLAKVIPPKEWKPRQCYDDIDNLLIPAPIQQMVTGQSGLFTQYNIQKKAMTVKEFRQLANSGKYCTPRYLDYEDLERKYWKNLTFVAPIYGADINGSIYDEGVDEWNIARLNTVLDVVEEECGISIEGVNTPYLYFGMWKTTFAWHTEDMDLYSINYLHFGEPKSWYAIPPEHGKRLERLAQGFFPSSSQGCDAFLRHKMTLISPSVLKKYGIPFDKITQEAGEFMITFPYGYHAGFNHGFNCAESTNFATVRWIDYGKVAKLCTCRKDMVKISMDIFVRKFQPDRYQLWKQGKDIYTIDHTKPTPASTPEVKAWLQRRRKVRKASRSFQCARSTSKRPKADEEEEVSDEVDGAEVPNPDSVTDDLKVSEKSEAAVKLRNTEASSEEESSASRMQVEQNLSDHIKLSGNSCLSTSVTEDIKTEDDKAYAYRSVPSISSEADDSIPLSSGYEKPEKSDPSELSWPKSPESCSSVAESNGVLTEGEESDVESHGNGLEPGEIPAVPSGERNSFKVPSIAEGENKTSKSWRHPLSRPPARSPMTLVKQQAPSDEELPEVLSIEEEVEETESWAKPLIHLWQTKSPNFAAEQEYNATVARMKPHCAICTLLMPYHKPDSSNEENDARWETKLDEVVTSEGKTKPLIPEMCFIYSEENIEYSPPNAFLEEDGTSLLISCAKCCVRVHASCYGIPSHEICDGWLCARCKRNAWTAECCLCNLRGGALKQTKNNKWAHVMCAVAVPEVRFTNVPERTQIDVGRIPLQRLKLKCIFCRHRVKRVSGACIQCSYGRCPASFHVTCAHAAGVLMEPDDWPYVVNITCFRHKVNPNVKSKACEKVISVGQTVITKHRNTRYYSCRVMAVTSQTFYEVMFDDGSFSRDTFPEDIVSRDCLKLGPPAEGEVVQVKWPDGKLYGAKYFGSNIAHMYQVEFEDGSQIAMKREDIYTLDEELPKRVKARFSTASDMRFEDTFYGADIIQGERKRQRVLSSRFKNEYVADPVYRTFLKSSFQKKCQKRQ
Chain of FAD-linked sulfhydryl oxidase ALR (P55789 whole entry): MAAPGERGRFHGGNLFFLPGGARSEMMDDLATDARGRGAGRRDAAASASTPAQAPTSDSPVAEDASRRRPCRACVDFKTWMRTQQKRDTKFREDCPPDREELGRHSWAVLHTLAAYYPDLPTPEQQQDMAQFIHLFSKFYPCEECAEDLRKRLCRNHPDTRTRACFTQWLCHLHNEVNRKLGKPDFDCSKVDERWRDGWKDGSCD
Chain of Phospholipase D2 (O14939 whole entry): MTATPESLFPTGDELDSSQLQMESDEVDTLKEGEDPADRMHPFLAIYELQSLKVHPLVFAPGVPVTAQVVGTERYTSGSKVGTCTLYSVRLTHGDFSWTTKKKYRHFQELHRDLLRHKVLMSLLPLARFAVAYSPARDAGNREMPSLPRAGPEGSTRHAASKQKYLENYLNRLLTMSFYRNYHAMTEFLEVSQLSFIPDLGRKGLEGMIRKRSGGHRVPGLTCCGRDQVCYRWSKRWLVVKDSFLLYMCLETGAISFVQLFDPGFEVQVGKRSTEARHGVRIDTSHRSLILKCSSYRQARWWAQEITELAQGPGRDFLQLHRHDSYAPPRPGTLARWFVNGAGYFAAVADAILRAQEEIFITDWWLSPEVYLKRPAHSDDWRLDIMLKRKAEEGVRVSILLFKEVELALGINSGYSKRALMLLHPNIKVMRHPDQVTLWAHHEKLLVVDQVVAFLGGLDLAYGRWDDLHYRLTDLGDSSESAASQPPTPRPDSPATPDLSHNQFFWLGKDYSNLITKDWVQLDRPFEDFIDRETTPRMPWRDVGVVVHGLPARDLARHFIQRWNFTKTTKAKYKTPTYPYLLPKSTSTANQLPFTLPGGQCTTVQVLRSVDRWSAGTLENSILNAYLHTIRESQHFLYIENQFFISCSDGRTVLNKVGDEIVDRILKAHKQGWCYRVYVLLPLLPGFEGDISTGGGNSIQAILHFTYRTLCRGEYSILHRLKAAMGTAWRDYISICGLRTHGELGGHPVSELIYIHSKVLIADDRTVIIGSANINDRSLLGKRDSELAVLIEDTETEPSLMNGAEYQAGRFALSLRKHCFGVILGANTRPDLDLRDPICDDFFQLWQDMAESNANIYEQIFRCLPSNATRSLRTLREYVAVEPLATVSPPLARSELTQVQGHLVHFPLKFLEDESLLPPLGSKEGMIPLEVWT

CCOc1ccc(N2C(=O)CC(N(O)c3ccccc3)C2=O)cc1 (stereo not drawn)
AC50 [1]: 12.7 µM (active)

COc1cccc(/C=C/C(=O)c2ccc3c(c2)OCO3)c1OC
CC50 (Vero [2]): > 25 µM (active) | IC50 (Vero [3]): > 25 µM (active)

N#C/C(=C\c1c(Oc2ccccc2Cl)nc2ccccn2c1=O)C(=O)NC1CCS(=O)(=O)C1 (stereo not drawn)
IC50 (Vero [3]): > 25 µM (active)

O=C(Nc1nc2c(s1)CCCC2)c1ccc(N2C(=O)CCC2=O)cc1
AC50 [4]: 5.26 µM (active) | AC50 [5]: 7.74 µM (active) | AC50 [6]: 1.11 µM (active)

CCc1ccc(NC(=O)N(CCCN2CCOCC2)Cc2cccs2)cc1
EC50 [7]: > 92.5 µM (inactive) | EC50 (Mu-type opioid receptor): > 92.5 µM (inactive) | EC50 [8]: > 92.5 µM (inactive)

CN(N=O)c1ccc(CC2CCc3ccccc32)cc1 (stereo not drawn)
AC50 (HeLa): 79.8 µM (active) | IC50 (Protein skinhead-1): 58.5 µM (inactive)

CC(=O)Nc1ccc(S(=O)(=O)/N=C2\C(=O)c3ccccc3C(O)=C2N2CCN(Cc3ccccc3)CC2)cc1
EC50 [7]: > 92.5 µM (inactive) | EC50 (Mu-type opioid receptor): > 92.5 µM (inactive) | EC50 [8]: > 92.5 µM (inactive)

COc1ccc(S(=O)(=O)N(C)C[C@H]2Oc3c(NC(=O)Nc4cccc5ccccc45)cccc3C(=O)N([C@H](C)CO)C[C@H]2C)cc1
AC50 (INS1): 41.5 µM (active)

C[C@@H](CN1CCC2(CC1)C(=O)NCN2c1ccc(F)c(F)c1)NC(=O)c1ccc(Cl)cc1
IC50 (Phospholipase D1): 0.031 µM (active) | IC50 (Phospholipase D2): 0.125 µM (active)

c1cc(-c2ccc3c(c2)OCO3)nc(Nc2ccc3c(c2)OCO3)n1
AC50 [5]: 2.04 µM (active)

O=C(N/N=C/c1cn(Cc2cccc(F)c2)c2ccccc12)c1cc(O)cc(O)c1
IC50 [9]: 6.82 µM (active) | IC50 [10]: > 100 µM (inactive) | IC50 [11]: 2.39 µM (active) | IC50 [12]: 50.6 µM (inactive) | IC50 [13]: 2.08 µM (active) | CC50 [14]: > 40 µM (active) | IC50 [15]: 74.4 µM (active) | IC50 [16]: 10.3 µM (active) | IC50 (Albumin): > 94.1 µM (inactive) | IC50 [17]: 4.76 µM (active) | IC50 [18]: > 100 µM (inactive) | IC50 [19]: 2.49 µM (active) | AC50 (Caspase-6): 0.461 µM (active) | IC50 [20]: 2.7 µM (active)
